Read-outs that look alike come from different tables or passages of the source.
Legend:
[1] = human subjects, buccal administration; cited from earlier work
α2-aderenoceptor = conditions: selective α2-adrenoceptor agonist; cited from earlier work
clinical = conditions: human, in vivo
Excerpt: Dexmedetomidine plasma concentration-time data from clinical study # REC-10-006 were used in predicting the steady-state concentration-time profiles resulting from once-daily (QD) and twice-daily (BID) topical application of a 0.25, 0.5, and 1-gram dose. The data from the following 3 subjects were used: 1001, 1004, and 1005. The three subjects participated in the following treatment arms: Treatment A (0.25-gram dose), Treatment C (0.5-gram dose), and Treatment E (1.0-gram dose). Clinical study # REC-10-006 was a single ascending-dose study with multiple treatment arms (Treatments A, B, C, D and E). Plasma samples for drug analysis were taken at pre-dose (0 hour) and at the following specified times after dosing: 0.5, 1, 1.5, 2, 3, 4, 6, 8, 10, 12, 18, 24, 30, 36, and 48 hours. The lower limit of quantification of the bioanalytical assay was 0.02 ng/mL.
All pharmacokinetic parameters were analyzed using compartmental analysis. Dexmedetomidine plasma concentration-time data from Period 1 (REC-10-006) were used in predicting the steady-state concentration-time profiles resulting from once-daily (QD) and twice-daily (BID) topical application of 0.25-, 0.5- and 1.0-gram doses. The data used were from three subjects (Identifiers 1001, 1004, and 1005) who participated in treatment arms A (0.25-gram dose), C (0.5-gram dose), and E (1.0-gram dose). Blood samples for drug analysis were taken at pre-dose and at the following specified times after dosing: 0.25, 0.5, 0.75, 1, 1.5, 2, 2.5, 3, 4, 5, 6, 7, 8, 12, 24, 48, and 72 hours. […] Once the PK parameters were calculated and the single-dose concentrations were generated, the data were imported into WinNonlin™, Version 5.2 (WinNonlin™ Copyright ©2008, Pharsight Corporation), a nonparametric superposition was carried out to predicted the steady-state plasma concentration-time profiles resulting from QD and BID dosing.
As stated previously, the PK parameters were calculated using nonlinear-mixed-effect model using the software MonoLix 3.1. […]

[2] = humans, cited from earlier work

Compound: Cc1cccc([C@H](C)c2cnc[nH]2)c1C [dexmedetomidine, 5-[(1S)-1-(2,3-dimethylphenyl)ethyl]-1H-imidazole]
- time of maximum concentration [1]: approximately 1.5 h
- selectivity relative to that of clonidine (α2-aderenoceptor): approximately 10 fold
- period of absorption at a constant rate (clinical): ~20 h
- portion of the plasma concentrations below the quantifiable level of 0.02 ng/mL (clinical): 67%
- half-life (clinical; topical or ocular): ~15 h
- time to maximum concentration in blood ([2]; i.m. administration): 1.6 to 1.7 h
- time to maximum concentration in blood ([2]; transdermal administration): 6 h
